The values that follow are results of earlier work, collected in article PMC9037210, “Novel 3-(6-methylpyridin-2-yl)coumarin-based chalcones as selective inhibitors of cancer-related carbonic anhydrases IX and XII endowed with anti-proliferative activity” (Journal of Enzyme Inhibition and Medicinal Chemistry, 2022).

Where only a bound is given, the exact number is not on record here.

One data set deals with T1, hCA I (Homo sapiens, UniProt P00915).
T1 construct: made in house
Particulars: Figure 1; read-out: hCA I inhibition; cited from earlier work.

A further data set addresses T2, hCA II (Homo sapiens, UniProt P00918).
T2 construct: made in house
As to conditions: Figure 1; read-out: hCA II inhibition; cited from earlier work.

Another data set concerns the target T3, hCA IX (Homo sapiens, UniProt Q16790).
T3 construct: made in house
As to conditions: Figure 1; read-out: hCA IX inhibition; cited from earlier work.

T1 sequence (P00915 whole entry): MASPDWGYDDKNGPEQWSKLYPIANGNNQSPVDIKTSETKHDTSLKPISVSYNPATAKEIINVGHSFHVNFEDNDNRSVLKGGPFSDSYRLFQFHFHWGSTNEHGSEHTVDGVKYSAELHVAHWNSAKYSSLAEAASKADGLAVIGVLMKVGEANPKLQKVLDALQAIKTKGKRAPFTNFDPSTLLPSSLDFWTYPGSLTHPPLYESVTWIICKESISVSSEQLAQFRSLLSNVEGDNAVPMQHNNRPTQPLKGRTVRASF

For `O=c1ccc2cc(O)ccc2o1` [III], the Ki at hCA I and at hCA II was > 100 µM throughout.
For `O=C(Nc1ccc(Cl)cc1)c1cc2ccc(O)cc2oc1=O` [IV], the Ki on hCA I and on hCA II was > 100 µM throughout.
`O=Cc1ccccc1OCc1cn(CCCOc2ccc3ccc(=O)oc3c2)nn1` [V]: the values for the Ki on hCA I and at hCA IX were > 10 µM and 0.13 µM, respectively.
